# Results reported in patent publication US5481003A, “Protein kinase C inhibitors” (Eli Lilly and Company, priority 1994, dated 1996).
# “Also recorded” adds a separate entry of the source. Where two headings read alike, the source gives them in different places.
# Assays:
# PKC isozymes = settings: cited from earlier work
# protein kinase C eta = protein kinase C eta (Homo sapiens, UniProt P24723); assay: PKC Enzyme Assay, eta isozyme; format: biochemical; settings: 30 μM ATP, 30° C., 10 minutes
# Description: (§1) PKC enzymes=alpha, beta 1, beta II, gamma, delta, epsilon, eta and zeta.
# (§2) Assay components in a total volume of 250 μL are the following:
# (§3) Vesicles consisting of 120 μg/mL phosphatidylserine (Avanti Polar Lipids)and sufficient diacylglycerol (Avanti Polar Lipids) to activate the enzyme to maximum activity in 20 mM HEPES buffer (Sigma, St. Louis, Mo.), pH 7.5, 940 μM calcium chloride (Sigma, St. Louis, Mo.) for assaying the alpha, beta I, beta II and gamma enzyme only, 1 mM EGTA for all the enzymes, 10 mM magnesium chloride (Sigma, St. Louis, Mo.) and 30 μM (gamma-32P) ATP (DuPont). For all the enzymes either histone type HL (Worthington) or myelin basic protein is used as substrate. The assay is started by addition of protein kinase C enzyme incubated at 30° C. for 10 minutes and stopped by adding 0.5 mL of cold trichloroacetic acid (Amresco) followed by 100 μL of 1 mg/mL bovine serum albumin (Sigma, St. Louis, Mo.). The precipitate is collected by vacuum filtration on glass fiber filters employing a TOMTEC™ filtration system and quantified by counting in a beta scintillation counter.
# protein kinase C alpha = protein kinase C alpha (Homo sapiens, UniProt P17252); assay: PKC Enzyme Assay, alpha isozyme; format: biochemical; settings: 30 μM ATP, 30° C., 10 minutes
# Description: as §1, §2, §3
# protein kinase C beta-1 = protein kinase C beta-1 (Homo sapiens, UniProt P05771); assay: PKC Enzyme Assay, beta-1 isozyme; format: biochemical; settings: PKC beta-1; 30 μM ATP, 30° C., 10 minutes; read-out: IC50 β1
# Description: as §1, §2, §3
# protein kinase C beta-2 = protein kinase C beta-2 (Homo sapiens, UniProt P05771); assay: PKC Enzyme Assay, beta-2 isozyme; format: biochemical; settings: PKC beta-2; 30 μM ATP, 30° C., 10 minutes; read-out: IC50 β2
# Description: as §1, §2, §3
# protein kinase C gamma = protein kinase C gamma (Homo sapiens, UniProt P05129); assay: PKC Enzyme Assay, gamma isozyme; format: biochemical; settings: 30 μM ATP, 30° C., 10 minutes
# Description: as §1, §2, §3
# protein kinase C delta = protein kinase C delta (Homo sapiens, UniProt Q05655); assay: PKC Enzyme Assay, delta isozyme; format: biochemical; settings: 30 μM ATP, 30° C., 10 minutes
# protein kinase C epsilon = target: T1, protein kinase C epsilon (Homo sapiens, UniProt Q02156); assay: PKC Enzyme Assay, epsilon isozyme; format: biochemical; settings: 30 μM ATP, 30° C., 10 minutes
# T1 sequence (Q02156 1-737): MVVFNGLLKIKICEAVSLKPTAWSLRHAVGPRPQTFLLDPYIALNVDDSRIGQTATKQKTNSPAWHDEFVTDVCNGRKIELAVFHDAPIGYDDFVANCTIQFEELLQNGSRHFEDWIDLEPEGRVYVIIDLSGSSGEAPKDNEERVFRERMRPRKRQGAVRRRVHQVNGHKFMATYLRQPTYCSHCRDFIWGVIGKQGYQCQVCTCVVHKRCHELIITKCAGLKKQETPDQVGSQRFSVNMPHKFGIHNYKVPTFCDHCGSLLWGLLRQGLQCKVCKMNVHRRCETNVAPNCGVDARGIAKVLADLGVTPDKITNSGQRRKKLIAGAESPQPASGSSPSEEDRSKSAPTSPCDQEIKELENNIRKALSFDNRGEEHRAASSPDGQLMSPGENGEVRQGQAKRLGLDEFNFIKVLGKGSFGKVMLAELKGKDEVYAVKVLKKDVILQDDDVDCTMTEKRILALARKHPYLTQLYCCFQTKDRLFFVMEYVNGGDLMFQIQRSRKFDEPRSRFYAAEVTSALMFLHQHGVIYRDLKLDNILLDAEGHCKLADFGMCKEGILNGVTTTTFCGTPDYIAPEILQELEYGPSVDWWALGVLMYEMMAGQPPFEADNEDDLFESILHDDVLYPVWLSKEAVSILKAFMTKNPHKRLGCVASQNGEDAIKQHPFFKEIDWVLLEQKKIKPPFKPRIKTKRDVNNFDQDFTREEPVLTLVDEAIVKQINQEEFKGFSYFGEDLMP
# Description: as §1, §2, §3
# protein kinase C zeta = target: T2, protein kinase C zeta (Homo sapiens, UniProt Q05513); assay: PKC Enzyme Assay, zeta isozyme; format: biochemical; settings: 30 μM ATP, 30° C., 10 minutes
# T2 sequence (Q05513 1-592): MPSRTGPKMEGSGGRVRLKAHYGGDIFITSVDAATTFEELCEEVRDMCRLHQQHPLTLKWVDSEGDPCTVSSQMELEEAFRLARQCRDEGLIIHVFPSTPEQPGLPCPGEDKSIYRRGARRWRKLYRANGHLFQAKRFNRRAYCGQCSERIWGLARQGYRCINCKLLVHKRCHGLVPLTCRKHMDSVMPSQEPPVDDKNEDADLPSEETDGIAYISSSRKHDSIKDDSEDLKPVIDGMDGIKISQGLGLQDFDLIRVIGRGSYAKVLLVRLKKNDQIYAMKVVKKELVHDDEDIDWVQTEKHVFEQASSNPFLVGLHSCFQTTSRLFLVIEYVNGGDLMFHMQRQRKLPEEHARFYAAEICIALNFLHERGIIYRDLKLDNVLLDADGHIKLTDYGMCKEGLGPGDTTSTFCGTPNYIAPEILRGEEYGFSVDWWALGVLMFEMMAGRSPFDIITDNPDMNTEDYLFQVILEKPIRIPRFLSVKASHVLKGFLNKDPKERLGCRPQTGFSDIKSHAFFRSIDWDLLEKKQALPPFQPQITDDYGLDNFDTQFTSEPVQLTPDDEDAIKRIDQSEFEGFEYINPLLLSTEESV
# Description: as §1, §2, §3
# Sequence of protein kinase C beta-1 (P05771 whole entry): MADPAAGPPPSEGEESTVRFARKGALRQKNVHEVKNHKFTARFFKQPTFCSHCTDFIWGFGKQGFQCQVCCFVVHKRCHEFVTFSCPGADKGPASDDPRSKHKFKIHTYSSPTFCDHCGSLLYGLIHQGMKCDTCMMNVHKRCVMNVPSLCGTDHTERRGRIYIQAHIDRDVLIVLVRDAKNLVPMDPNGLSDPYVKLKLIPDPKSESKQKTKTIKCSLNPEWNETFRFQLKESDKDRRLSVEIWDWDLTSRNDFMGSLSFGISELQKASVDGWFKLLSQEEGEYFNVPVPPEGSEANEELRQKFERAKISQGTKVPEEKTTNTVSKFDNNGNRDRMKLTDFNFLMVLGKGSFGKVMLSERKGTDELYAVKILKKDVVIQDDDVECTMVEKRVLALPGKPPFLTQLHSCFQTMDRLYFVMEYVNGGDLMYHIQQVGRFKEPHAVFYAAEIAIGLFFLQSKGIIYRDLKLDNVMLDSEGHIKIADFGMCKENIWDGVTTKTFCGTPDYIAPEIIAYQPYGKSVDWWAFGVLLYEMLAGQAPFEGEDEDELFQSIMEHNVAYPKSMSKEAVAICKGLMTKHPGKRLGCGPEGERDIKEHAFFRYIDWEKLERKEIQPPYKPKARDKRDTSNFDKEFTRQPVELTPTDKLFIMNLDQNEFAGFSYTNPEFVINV
# Sequence of protein kinase C eta (P24723 whole entry): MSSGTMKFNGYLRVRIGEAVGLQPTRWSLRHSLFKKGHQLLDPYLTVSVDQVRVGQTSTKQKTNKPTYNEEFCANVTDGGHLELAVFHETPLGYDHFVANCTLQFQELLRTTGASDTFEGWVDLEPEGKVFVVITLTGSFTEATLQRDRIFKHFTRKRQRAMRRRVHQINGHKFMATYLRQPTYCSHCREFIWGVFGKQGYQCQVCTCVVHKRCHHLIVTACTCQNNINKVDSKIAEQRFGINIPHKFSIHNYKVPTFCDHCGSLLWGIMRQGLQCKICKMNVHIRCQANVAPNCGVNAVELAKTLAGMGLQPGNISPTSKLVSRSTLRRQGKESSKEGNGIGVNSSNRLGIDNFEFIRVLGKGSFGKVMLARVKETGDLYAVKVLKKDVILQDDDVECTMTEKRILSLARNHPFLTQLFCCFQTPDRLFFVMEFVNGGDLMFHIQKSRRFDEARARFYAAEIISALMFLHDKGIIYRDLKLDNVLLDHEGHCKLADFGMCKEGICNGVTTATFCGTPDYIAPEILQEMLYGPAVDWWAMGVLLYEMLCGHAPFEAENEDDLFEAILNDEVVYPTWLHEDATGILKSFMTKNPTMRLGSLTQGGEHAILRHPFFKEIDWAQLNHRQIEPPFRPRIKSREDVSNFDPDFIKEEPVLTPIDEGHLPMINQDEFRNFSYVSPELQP
# Sequence of protein kinase C beta-2 (P05771 1-673 isoform P05771-2): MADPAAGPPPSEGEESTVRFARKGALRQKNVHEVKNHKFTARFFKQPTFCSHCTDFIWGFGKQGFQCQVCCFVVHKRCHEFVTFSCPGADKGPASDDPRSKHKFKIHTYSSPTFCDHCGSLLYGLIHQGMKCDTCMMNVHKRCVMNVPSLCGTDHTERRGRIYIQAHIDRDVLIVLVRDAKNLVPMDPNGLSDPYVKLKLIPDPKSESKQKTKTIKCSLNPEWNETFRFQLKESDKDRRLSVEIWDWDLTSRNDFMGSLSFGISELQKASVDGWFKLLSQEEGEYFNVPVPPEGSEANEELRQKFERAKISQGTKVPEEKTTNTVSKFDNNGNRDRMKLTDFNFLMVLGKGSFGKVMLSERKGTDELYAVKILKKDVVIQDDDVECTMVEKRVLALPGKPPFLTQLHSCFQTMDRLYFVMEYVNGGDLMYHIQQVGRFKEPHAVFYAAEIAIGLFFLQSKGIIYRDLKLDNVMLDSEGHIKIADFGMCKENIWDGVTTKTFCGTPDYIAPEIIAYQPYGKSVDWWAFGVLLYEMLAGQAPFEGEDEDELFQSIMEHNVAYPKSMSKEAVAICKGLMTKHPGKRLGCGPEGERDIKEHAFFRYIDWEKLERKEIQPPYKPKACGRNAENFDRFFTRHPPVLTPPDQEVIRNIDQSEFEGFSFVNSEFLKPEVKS
# Sequence of protein kinase C delta (Q05655 whole entry): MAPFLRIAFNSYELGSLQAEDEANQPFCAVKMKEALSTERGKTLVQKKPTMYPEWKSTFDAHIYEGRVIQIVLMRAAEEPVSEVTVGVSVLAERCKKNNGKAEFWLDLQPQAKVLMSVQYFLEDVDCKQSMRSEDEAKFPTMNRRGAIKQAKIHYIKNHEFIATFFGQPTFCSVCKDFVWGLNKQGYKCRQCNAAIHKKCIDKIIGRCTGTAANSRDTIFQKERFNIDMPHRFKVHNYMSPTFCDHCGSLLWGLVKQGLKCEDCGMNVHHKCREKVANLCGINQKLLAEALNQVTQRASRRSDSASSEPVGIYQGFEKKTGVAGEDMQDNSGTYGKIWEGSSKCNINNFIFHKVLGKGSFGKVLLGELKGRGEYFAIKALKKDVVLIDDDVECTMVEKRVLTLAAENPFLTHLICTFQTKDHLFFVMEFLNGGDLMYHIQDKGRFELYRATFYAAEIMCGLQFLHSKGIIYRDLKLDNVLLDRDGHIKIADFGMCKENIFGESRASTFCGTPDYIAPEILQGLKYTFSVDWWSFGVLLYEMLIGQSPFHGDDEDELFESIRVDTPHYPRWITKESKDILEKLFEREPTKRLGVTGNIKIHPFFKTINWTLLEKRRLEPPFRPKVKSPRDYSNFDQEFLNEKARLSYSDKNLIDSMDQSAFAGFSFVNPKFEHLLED
structure (smiles),measurement,setting,value
"CN(C)CCCn1cc(C2=C(c3c[nH]c4ccccc34)C(=O)NC2=O)c2ccccc21 [3-[1-(3-dimethylaminopropyl)-indol-3-yl]-4-(1H-indol-3-yl)-1H-pyrrole-2,5-dione]",isozyme selectivity,"PKC isozymes; Martiny-Baron, et al., J. Biol. Chem. 268:9194-9197 (1993)","slight selectivity for isozymes, alpha and beta versus delta, epsilon, and zeta; also recorded: no differences in the selectivity between alpha and beta-1 isozymes"
same,isozyme selectivity,"PKC isozymes; Toullec et al., J. Biol. Chem. 266:15771-15781 (1991)","slight selectivity for the calcium dependent isozymes; also recorded: no isozyme selectivity between alpha, beta-1, beta-2, and gamma"
"CC(C)(C)OC(=O)NCC(=O)n1cc(C2=C(c3cn(CCCN=[N+]=[N-])c4ccccc34)C(=O)NC2=O)c2ccccc21 [Example 1, 3-[1-(3-azidopropyl)-3-indolyl]-4-[(1-N-^t BOC )-glycine-3indolyl]-1H-pyrrol-2,5-dione]",IC50,protein kinase C eta,2.6 µM
"CN(C)CCCn1cc(C2=C(c3cn(C(=O)CNC(=O)OC(C)(C)C)c4ccccc34)C(=O)NC2=O)c2ccccc21 [Example 2, 3-[1-(3-N,N'-dimethylaminopropyl)-3-indolyl]-4-[(1-N-^t BOC)-glycine-3-indolyl]-1H-pyrrol-2,5-dione]",IC50,protein kinase C alpha,2.3 µM
same,IC50,protein kinase C beta-1,0.15 µM
same,IC50,protein kinase C beta-2,0.04 µM
same,IC50,protein kinase C gamma,2.6 µM
same,IC50,protein kinase C delta,2.9 µM
same,IC50,protein kinase C epsilon,6.1 µM
same,IC50,protein kinase C zeta,45 µM
same,IC50,protein kinase C eta,0.37 µM
"CC(C)(C)OC(=O)N[C@@H](Cc1ccccc1)C(=O)n1cc(C2=C(c3cn(C(=O)[C@H](Cc4ccccc4)NC(=O)OC(C)(C)C)c4ccccc34)C(=O)NC2=O)c2ccccc21 [Example 3, 3,4-Bis[(1-N-^t BOC)-phenylalanine-3-indolyl]-1H-Pyrrol-2,5-dione]",IC50,protein kinase C beta-1,1 µM
